Test results as given in patent US8673912B2, “Crystalline Forms on N-[3-fluoro-4-({6-(methyloxy)-7-[(3-morpholin-4-ylpropyl)oxy]-quinolin-4-yl}oxy)phenyl]-N′-(4-fluorophenyl)cyclopropane-1,1-dicarboxamide” (Exelixis, Inc., priority 2009, dated 2014).

Legend:
Type in all cases: physicochemical
[1] = Relative thermodynamic stability of crystalline forms; details: forms A and B are enantiotropically related
[2] = Retention of crystalline form in final tablet (XRPD); details: micronized, high shear wet granulation, compression, optional aqueous film coat
Method: The tablets in this example were prepared with an optional aqueous film coat. Preparation of the intra-granular component involved a high shear wet granulation to make granules to be used for further processing. All components used are conventional for the wet granulation process except for the sodium lauryl sulfate which was added as a bioenhancement agent to enhance the bioavailability of the drug substance. The crystalline Compound (I), form B, was used in a micronized form for bioenhancement, which means that the density of the drug substance is low making it difficult to handle and process. High shear wet granulation is used to produce dense material that is easier to process and make into tablets. The preparation of the extra-granular component was a compression step to make the tablets out of the granules and the added excipients. The excipients used are conventional to allow for the formation of the tablet. The crystalline form of Compound 1, Form B, was retained in the final tablet as confirmed by XRPD.

[3] = Karl Fisher water content determination; details: crystalline Form A prepared in Example 1.1.2; measured in duplicate
Method: The study was done using a standard procedure. Water contents were measured on a Mettler Toledo DL39 Coulometer using Hydranal AG Oven reagent and an argon purge. Samples were introduced into the vessel as solids weighed out onto a platinum TGA pan which was connected to a subaseal via tweezers to avoid water ingress. Approximately 10 mg of sample was used per titration and each analysis was performed in duplicate. The water content of crystalline Compound (I) prepared in Example 1.1.2 was measured in duplicate and gave an average value of 0.1%.

[4] = Gravimetric Vapor Sorption Study (GVS); details: crystalline Form A prepared in Example 1.1.2
Method: The GVS study was run using a standard procedure. Samples were run on a Hiden IGASorp moisture sorption analyzer running CFRSorp software. Sample sizes were typically 10 mg. A moisture adsorption desorption isotherm was performed as outlined below. All samples were loaded/unloaded at typical room humidity and temperature (40% RH, 25° C.) and analyzed afterwards by XRPD. The standard isotherm run is a cycle starting at 40% RH→90%→Dry finishing at 35% RH at 25° C. and 10% RH intervals.

COc1cc2c(Oc3ccc(NC(=O)C4(C(=O)Nc5ccc(F)cc5)CC4)cc3F)ccnc2cc1OCCCN1CCOCC1 [Form A, N-[3-fluoro-4-({6-(methyloxy)-7-[(3-morpholin-4-ylpropyl)oxy]quinolin-4-yl}oxy)phenyl]-N′-(4-fluorophenyl)cyclopropane-1,1-dicarboxamide]
temperatures at which the form is believed to be the most thermodynamically stable form [1]: less than 75 °C

COc1cc2c(Oc3ccc(NC(=O)C4(C(=O)Nc5ccc(F)cc5)CC4)cc3F)ccnc2cc1OCCCN1CCOCC1 [Form B, N-[3-fluoro-4-({6-(methyloxy)-7-[(3-morpholin-4-ylpropyl)oxy]quinolin-4-yl}oxy)phenyl]-N′-(4-fluorophenyl)cyclopropane-1,1-dicarboxamide]
temperatures at which the form is believed to be the most thermodynamically stable form [1]: greater than 75 °C | crystalline form in the final tablet as confirmed by XRPD [2]: retained

COc1cc2c(Oc3ccc(NC(=O)C4(C(=O)Nc5ccc(F)cc5)CC4)cc3F)ccnc2cc1OCCCN1CCOCC1 [Compound (I), N-[3-fluoro-4-({6-(methyloxy)-7-[(3-morpholin-4-ylpropyl)oxy]quinolin-4-yl}oxy)phenyl]-N′-(4-fluorophenyl)cyclopropane-1,1-dicarboxamide]
water content (Karl Fisher), average value [3]: 0.1% | weight gain (GVS) ([4]; 25° C. and 90% humidity): 0.5% | reanalysis of the sample by XRPD after GVS ([4]; after isotherm cycle 40% RH to 90% to dry to 35% RH at 25° C.): no change in form
